Measurements reported in ChEMBL document CHEMBL3880421, “Indazole compounds and pharmaceutical compositions for inhibiting protein kinases, and methods for their use” (2003).

Experiments:
[1] = Antiproliferative activity against VEGF-stimulated HUVEC cells assessed as reduction in cell viability at 0.5 nM preincubated for 1 hr followed by addition of VEGF measured after 72 hrs by MTT assay; format: functional; conditions: Homo sapiens
[2] = Antiproliferative activity against VEGF-stimulated HUVEC cells assessed as reduction in cell viability at 2 nM preincubated for 1 hr followed by addition of VEGF measured after 72 hrs by MTT assay; format: functional; conditions: Homo sapiens

SMILES	inhibition at 0.0005 µM [1] [%]	inhibition at 0.002 µM [2] [%]
O=C(NCCN1CCNCC1)c1ccccc1Nc1ccc2c(/C=C/c3ccccn3)n[nH]c2c1	37	12
NC(=O)[C@H](CO)NC(=O)c1ccccc1Nc1ccc2c(/C=C/c3ccccn3)n[nH]c2c1	17	4
O=C(NCc1ccccn1)c1ccccc1Nc1ccc2c(/C=C/c3ccccn3)n[nH]c2c1	6	43
CCOC(CNC(=O)c1ccccc1Nc1ccc2c(/C=C/c3ccccn3)n[nH]c2c1)OCC	11	47
O=C(Cc1ccccc1)NNC(=O)c1ccccc1Nc1ccc2c(/C=C/c3ccccn3)n[nH]c2c1	31	66
COC(CNC(=O)c1ccccc1Nc1ccc2c(/C=C/c3ccccn3)n[nH]c2c1)OC	47	89
CCn1nccc1NC(=O)c1ccccc1Nc1ccc2c(/C=C/c3ccccn3)n[nH]c2c1	26	2
O=C(NCCN1CCNC1=O)c1ccccc1Nc1ccc2c(/C=C/c3ccccn3)n[nH]c2c1	5	1
CCCCCCCCNC(=O)c1ccccc1Nc1ccc2c(/C=C/c3ccccn3)n[nH]c2c1	26	16
CCN1CCCC1CNC(=O)c1ccccc1Nc1ccc2c(/C=C/c3ccccn3)n[nH]c2c1 (centres undefined)	18	5
C=CCONC(=O)c1ccccc1Nc1ccc2c(/C=C/c3ccccn3)n[nH]c2c1	51 to 92	103 to 108
CN(C)CC(=O)NNC(=O)c1ccccc1Nc1ccc2c(/C=C/c3ccccn3)n[nH]c2c1	41	16
CCN(CC)CCCCNC(=O)c1ccccc1Nc1ccc2c(/C=C/c3ccccn3)n[nH]c2c1	22	36
Cc1cc(NC(=O)c2ccccc2Nc2ccc3c(/C=C/c4ccccn4)n[nH]c3c2)n(C)n1	39	13
Cc1cc(NC(=O)c2ccccc2Nc2ccc3c(/C=C/c4ccccn4)n[nH]c3c2)no1	28	14
O=C(O)CCCNC(=O)c1ccccc1Nc1ccc2c(/C=C/c3ccccn3)n[nH]c2c1	16	20
CC(CN(C)C)NC(=O)c1ccccc1Nc1ccc2c(/C=C/c3ccccn3)n[nH]c2c1 (centres undefined)	23	17
O=C(NCCc1ccccc1)c1ccccc1Nc1ccc2c(/C=C/c3ccccn3)n[nH]c2c1	15	99
CC1(C)OCC(CNC(=O)c2ccccc2Nc2ccc3c(/C=C/c4ccccn4)n[nH]c3c2)O1 (centres undefined)	28	69
O=C(NCC1CCCO1)c1ccccc1Nc1ccc2c(/C=C/c3ccccn3)n[nH]c2c1 (centres undefined)	23	44
O=C(NCc1cccc(F)c1)c1ccccc1Nc1ccc2c(/C=C/c3ccccn3)n[nH]c2c1	81	95
NC(=O)c1ccccc1Nc1ccc2c(/C=C/c3ccccn3)n[nH]c2c1	9	30
CCN1CCC[C@H]1CNC(=O)c1ccccc1Nc1ccc2c(/C=C/c3ccccn3)n[nH]c2c1	15	23

SMILES	inhibition at 0.0005 µM [1] [%]	inhibition at 0.002 µM [2] [%]
Nc1nnc(NC(=O)c2ccccc2Nc2ccc3c(/C=C/c4ccccn4)n[nH]c3c2)[nH]1	-6	41
CC(C)(C)ONC(=O)c1ccccc1Nc1ccc2c(/C=C/c3ccccn3)n[nH]c2c1	-3	64
COc1cccc(CNC(=O)c2ccccc2Nc2ccc3c(/C=C/c4ccccn4)n[nH]c3c2)c1	58	100
CC(NC(=O)c1ccccc1Nc1ccc2c(/C=C/c3ccccn3)n[nH]c2c1)c1ccccc1 (centres undefined)	30	94
O=C(Nc1cc[nH]n1)c1ccccc1Nc1ccc2c(/C=C/c3ccccn3)n[nH]c2c1	20	25
N#CCONC(=O)c1ccccc1Nc1ccc2c(/C=C/c3ccccn3)n[nH]c2c1	16	2
O=C(Nc1ccon1)c1ccccc1Nc1ccc2c(/C=C/c3ccccn3)n[nH]c2c1	6	16
COC[C@@H]1CCCN1NC(=O)c1ccccc1Nc1ccc2c(/C=C/c3ccccn3)n[nH]c2c1	13	7
CC(CNC(=O)c1ccccc1Nc1ccc2c(/C=C/c3ccccn3)n[nH]c2c1)N(C)C (centres undefined)	-9	1
CSCCCNC(=O)c1ccccc1Nc1ccc2c(/C=C/c3ccccn3)n[nH]c2c1	44	100
CC(C)(N)CNC(=O)c1ccccc1Nc1ccc2c(/C=C/c3ccccn3)n[nH]c2c1	31	3
CN(C)CC(C)(C)CNC(=O)c1ccccc1Nc1ccc2c(/C=C/c3ccccn3)n[nH]c2c1	38	5
CCN(CC)CCCC(C)NC(=O)c1ccccc1Nc1ccc2c(/C=C/c3ccccn3)n[nH]c2c1 (centres undefined)	3	15
O=C(NCC(O)c1ccccc1)c1ccccc1Nc1ccc2c(/C=C/c3ccccn3)n[nH]c2c1 (centres undefined)	12	55
O=C(NN1CCCCC1)c1ccccc1Nc1ccc2c(/C=C/c3ccccn3)n[nH]c2c1	27	17
CCC(O)CNC(=O)c1ccccc1Nc1ccc2c(/C=C/c3ccccn3)n[nH]c2c1 (centres undefined)	13	23
CC(C)N(CCNC(=O)c1ccccc1Nc1ccc2c(/C=C/c3ccccn3)n[nH]c2c1)C(C)C	37	15
O=C(NCCN(CCO)CCO)c1ccccc1Nc1ccc2c(/C=C/c3ccccn3)n[nH]c2c1	10	23
CCCCCCNC(=O)c1ccccc1Nc1ccc2c(/C=C/c3ccccn3)n[nH]c2c1	21	90
CC1CCC(NC(=O)c2ccccc2Nc2ccc3c(/C=C/c4ccccn4)n[nH]c3c2)CC1 (centres undefined)	-11	42
O=C(O)CNC(=O)c1ccccc1Nc1ccc2c(/C=C/c3ccccn3)n[nH]c2c1	8	23
O=C(NC1CCN(Cc2ccccc2)CC1)c1ccccc1Nc1ccc2c(/C=C/c3ccccn3)n[nH]c2c1	44	19
COC(=O)NNC(=O)c1ccccc1Nc1ccc2c(/C=C/c3ccccn3)n[nH]c2c1	8	21

SMILES	inhibition at 0.0005 µM [1] [%]	inhibition at 0.002 µM [2] [%]
CC(CCc1ccccc1)NC(=O)c1ccccc1Nc1ccc2c(/C=C/c3ccccn3)n[nH]c2c1 (centres undefined)	50	40
CCN1CCC[C@@H]1CNC(=O)c1ccccc1Nc1ccc2c(/C=C/c3ccccn3)n[nH]c2c1	8	37
CCN(CC)CCCNC(=O)c1ccccc1Nc1ccc2c(/C=C/c3ccccn3)n[nH]c2c1	31	-1
CCCC(CO)NC(=O)c1ccccc1Nc1ccc2c(/C=C/c3ccccn3)n[nH]c2c1 (centres undefined)	44	40
O=C(N[C@H]1CC[C@H](O)CC1)c1ccccc1Nc1ccc2c(/C=C/c3ccccn3)n[nH]c2c1	23	6
Cc1csc(NC(=O)c2ccccc2Nc2ccc3c(/C=C/c4ccccn4)n[nH]c3c2)n1	15	95
O=C(NNCC(F)(F)F)c1ccccc1Nc1ccc2c(/C=C/c3ccccn3)n[nH]c2c1	16	42
O=C(Nc1nnn[nH]1)c1ccccc1Nc1ccc2c(/C=C/c3ccccn3)n[nH]c2c1	21 to 39	18 to 64
O=C(Nc1nncs1)c1ccccc1Nc1ccc2c(/C=C/c3ccccn3)n[nH]c2c1	44	28
NS(=O)(=O)c1ccc(CCNC(=O)c2ccccc2Nc2ccc3c(/C=C/c4ccccn4)n[nH]c3c2)cc1	26	37
O=C1CSC(NC(=O)c2ccccc2Nc2ccc3c(/C=C/c4ccccn4)n[nH]c3c2)=N1	9	-9
CN(C)CCCNC(=O)c1ccccc1Nc1ccc2c(/C=C/c3ccccn3)n[nH]c2c1	6	1
O=C(NCC1CCC=CO1)c1ccccc1Nc1ccc2c(/C=C/c3ccccn3)n[nH]c2c1 (centres undefined)	37	16
O=C(NC1CCc2ccccc21)c1ccccc1Nc1ccc2c(/C=C/c3ccccn3)n[nH]c2c1 (centres undefined)	19	86
CC(C)C(CO)NC(=O)c1ccccc1Nc1ccc2c(/C=C/c3ccccn3)n[nH]c2c1 (centres undefined)	21	-5
O=C(NCCOc1ccccc1)c1ccccc1Nc1ccc2c(/C=C/c3ccccn3)n[nH]c2c1	16	73
O=C(NCc1ccncc1)c1ccccc1Nc1ccc2c(/C=C/c3ccccn3)n[nH]c2c1	34	58
O=C(NCCCN1CCCC1=O)c1ccccc1Nc1ccc2c(/C=C/c3ccccn3)n[nH]c2c1	25	35
O=C(N[C@@H]1CC=CC[C@@H]1CO)c1ccccc1Nc1ccc2c(/C=C/c3ccccn3)n[nH]c2c1	58	37
O=C(NCCOCCO)c1ccccc1Nc1ccc2c(/C=C/c3ccccn3)n[nH]c2c1	10	24
O=C(NCCO)c1ccccc1Nc1ccc2c(/C=C/c3ccccn3)n[nH]c2c1	18	24
